Holding throughout (test): Liquid phase testing (bacterial growth, OD600)
Assay [1] relates to resistant Staphylococcus aureus. The assay is classed as cell-based. Particulars: S. aureus, 30 μg/ml positive control. Here is the method: (§1) Stock solutions of extracts were prepared in dimethylsulfoxide (DMSO) at 10 mg/ml and stored in 200 μl aliquots at −20° C. until used. Two pathological agents were assessed: resistant Staphylococcus aureus and resistant Staphylococcus pseudointermedius. Three concentrations of each extract (5, 10 and 25 μg/ml) were evaluated in triplicate for each trial. Vehicle alone served as negative control. […] For selected samples, studies were repeated at 100 and 50 μg/ml.
(§2) A standard micro or mini-prep chase study was conducted. Briefly, liquid media was inoculated with a starting bolus of 0.01% bacteria and spiked with test extract at the study concentrations. Samples were incubated (shaking, 37° C.) overnight for 16 hours and bacterial growth enumerated by UV spectrometry in quadruplicate.

For assay [2], the system named is resistant Staphylococcus pseudointermedius. The assay is classed as cell-based, Staphylococcus pseudintermedius. Particulars: S. pseudo, 30 μg/ml positive control. Here is the method: as §1, §2
The next assay has as its system P. acnes. The assay is classed as cell-based, Propionibacterium acnes. To be noted: 30 μg/ml positive control.
Where [3] appears, read: higher concentration study (Table 4).

`O=C(N[C@H](CO)[C@H](O)c1ccc([N+](=O)[O-])cc1)C(Cl)Cl` [CAP, Chloramphenicol]: the “OD600” value was 0.023 in assay [1] (Table 2); 0.002 in assay [1] (setting [3]); 0.021 in assay [2] (Table 2); 0.004 in assay [2] (setting [3]); 0.005 in the assay on P. acnes (Table 2); 0.000 in the assay on P. acnes (setting [3]).

(Values after US11260091B2, “Red seaweed extracts, formulations and anti-microbial uses thereof” (OCEANS LTD., priority 2017, dated 2022).)
